Laboratory results from patent publication US20180289702A1, “LPA LEVEL REDUCTION FOR TREATING CENTRAL NERVOUS SYSTEM DISORDERS” (priority 2015, published 2018).

What was measured:
[1] = tested on: neuronal hyperexcitability induced by Ketamine; test: ketamine-induced potentiation of evoked local field potentials (LFPs); format: cell-based, mice
From the text: This aim was to unravel whether ATX-inhibition is able to revert cortical hyperexcitability and an altered E/I balance independent of the underlying cause. As previously described (Nosyreva E et al. 2013), ketamine application inhibits spontaneous neurotransmission and induces afterwards a potentiation of synaptic responses over time (FIG. 8A).

PRG-1+/− mice [2] = test: in vivo multi-unit activity (MUA) recordings in S1BF cortex; conditions: 1 μM applied into the cortex of living PRG-1+/− mice
From the text: In order to characterize the role of PRG-1 in cortical networks, the inventors then assessed expression of PRG-1 in the cerebral cortex and found strong expression in layer IV of the mouse somatosensory barrel field cortex (FIG. 3A) which was restricted to glutamatergic neurons. […] To understand implications of such a reduced synaptic PRG-1 function in intracortical information processing, the inventors performed multi-channel extracellular recordings in the S1BF cortex of wt and PRG-1^+/- mice in vivo (FIG. 3D). […] This finding points to a change in the cellular E/I balance towards excitation within cortical microcircuitries which has been related to severe behavioral deficits (Yizhar et al., 2011).

PRG-1+/− mice [3] = test: double-pulse whisker stimulation model of sensory gating; format: in vivo; conditions: animals with monoallelic PRG-1-deficiency, ISI 500 ms
From the text: In addition to analysis of spontaneous cortical network activity, the inventors assessed pre-attentive cortical information processing and measured sensory gating in a double-pulse whisker stimulation model (FIG. 4A). Local field potentials (recorded in the whisker-specific cortical barrel) in response to repetitive single-whisker stimulation elicited larger amplitudes to second stimulus in PRG-1^+/− when compared to wt (S1; S2; ISI=500 ms; FIG. 4B). […] These findings indicate that already loss of one functional allele of prg-1 as present in mutPRG-1 carriers, and thus a reduction of about 50% of functional PRG-1 at the synapse, causes an apparent E/I-imbalance in cortical networks and an altered sensory gating.

PRG-1+/− mice [4] = test: spontaneous postsynaptic currents (sPSC) with HA130; format: cell-based
PRG-1 het mice = test: mEPSC recordings with HA-130; format: cell-based

Compound: O=C1S/C(=C\c2ccc(OCc3cccc(B(O)O)c3)cc2)C(=O)N1Cc1ccc(F)cc1 [HA130, (Z)-3-((4-((3-(4-Fluorobenzyl)-2,4-dioxo-1,3-thiazolan-5-yliden)-methyl)phenoxy)methyl)benzeneboronic acid]
- ketamine-induced potentiation (evoked LFPs) ([1]; 10 μM during ketamine wash out / potentiation phase): significantly decreased
- ketamine-induced potentiation, input-output curves ([1]; after HA-130 treatment): reverted to baseline values
- number of multi-unit activity (MUA) bursts (PRG-1+/− mice [2]): significantly decreased
- S2/S1-ratio (PRG-1+/− mice [3]): reduced
- sensory gating (PRG-1+/− mice [3]): significantly restored
- spontaneous postsynaptic currents (sPSC) (PRG-1+/− mice [4]; 1 μM): significant decrease
- spontaneous postsynaptic currents (sPSC) (PRG-1+/− mice [4]; 10 μM): significant decrease
- mEPSCs (spontaneous glutamatergic release at presynaptic terminals) (PRG-1 het mice; 10 μM (FIG. 12B), genotype not stated in the panel legend): decreased
- mEPSCs (PRG-1 het mice; 10 μM, PRG-1 het mice (FIG. 12A)): decreased
